Values of other authors as cited in patent publication EP4488277A1, “NOVEL BISPIDINE-BASED METAL CHELATING LIGANDS DISPLAYING GOOD RELAXIVITY” (Université de Strasbourg, priority 2023, dated 2025).

Settings: pH of 7.4, 60 MHz, 25°C

CNC[C@H](O)[C@@H](O)[C@H](O)[C@H](O)CO.O=C([O-])CN1CCN(CC(=O)[O-])CCN(CC(=O)O)CCN(CC(=O)[O-])CC1.[Gd+3] [Dotarem®, gadoterate meglumine]
relaxivity r1: 3.7 mM⁻¹ s⁻¹
